Source: patent US20050101542A1, “Combination therapy for controlling appetites” (Regents of the University of California, priority 2002, published 2005)
Entries after “also recorded” stand apart in the source; their conditions may differ.

Legend:
[1] = Capsaicin sensory deafferentation and feeding, Example 8; format: in vivo, rat; settings: CCK-8 10 μg/kg, CP 93129 1, WIN 55,212-2 2, anandamide 2, SR141716A 3 mg/kg, i.p.
Procedure: Capsaicin was administered subcutaneously (12.5 mg/ml, Kaneko, et al., Am. J. Physiol., 275:G1056-G1062 (1998)) in rats anesthetized with ethyl ether. The total dose of capsaicin (125 mg/kg) was divided into three injections (25 mg/kg in the morning and 50 mg/kg in the afternoon of the first day, 50 mg/kg on the 2nd day). Control rats received vehicle injections. […] Water intake (in ml/4 hr) was: vehicle 13.6±1.4; capsaicin rats 24.0±1.9, P<0.01 (n=12).
The can was retired and intake was recorded.

[2] = Food intake in capsaicin-treated (sensory deafferented) rats, Example 2; format: in vivo, rat; settings: OEA 10 mg per kg i.p.
Procedure: FAE were dissolved in dimethylsulphoxide (DMSO) and administered in 70% DMSO in sterile saline (acute treatments) Or 5% Tween 80/5% propylenglycol in sterile saline (subchronic treatments) (1 ml per kg, i.p.). Capsaicin was administered in 10% Tween 80/10% ethanol/80% saline; SR141716A, SR144528, CCK-8 and CP-93129 in 5% Tween 80/5% propylenglycol/90% saline (1 ml per kg, i.p.).

[3] = Acute feeding experiments in free-feeding mice (C57BL/6J, wild-type, PPARα-null); format: in vivo, mouse; settings: for meal pattern analysis (eating latency, meal size, post-meal interval): C57BL/6J mice; for food intake in C57BL/6J mice: i.p., Wy-14643 40, GW7647 20, clofibrate 25-100, GW501516 1-10, ciglitazone 15 mg kg^−1; for feeding in PPARα-deficient mice: OEA 10, Wy-14643 40, d-fenfluramine 4 mg-kg^−1, CCK-8 25 μg-kg^−1, i.p.
Procedure: Acute experiments. Drugs or appropriate vehicles (saline, for CCK-8 and d-fenfluramine; dimethylsulfoxide/saline, 70/30, for all other agents; 4 ml-kg^−1; i.p.) were administered at 5:00-5:30 PM to free-feeding mice, which were habituated to the experimental setting.

Soleus muscle = test: [14C]oleate oxidation to CO2 in soleus muscle; format: cell-based, rat
Source text: This example illustrates the effect of OEA on fat metabolism and methods for studying the same. Oleoylethanolamide (OEA) decreases body weight not only by suppressing appetite, but also by possibly enhancing body fat catabolism. The effects of OEA on fatty acid oxidation in major body-fat burning tissues (soleus muscle, liver, cultured cardiac myocytes and astrocytes) was examined. […] In addition, OEA induces a significant mobilization of triacylglycerol stores from primary white adipose tissue cells. Table 4 details the methods and effects of OEA on fatty acid oxidation in these cells. Structure-activity relationship experiments provide evidence that the effect of OEA on skeletal muscle fatty acid oxidation is specific (FIG. 8).

[4] = Acute food intake in 24-h food-deprived rats, i.p. dosing; format: in vivo, rat; settings: 24-h food-deprived rats, i.p.
Procedure: Feeding experiments. Acute experiments. Food intake was measured in 24-h food-deprived rats (Navarro, et al., J. Neurochem., 67:1982-1991 (1996)), administering drugs 15 min before food presentation. Subchronic experiments. Ad libitum fed rats received vehicle injections for three days. On day four, the animals were divided in two equal groups and gave them daily injections of vehicle or OEA (5 mg per kg at 1900 h) for 7 consecutive days, while measuring body weight, food intake and water intake.
The effects of systemically administered OEA or an OEA-like compound or OEA-like modulator on food intake in rats can be assessed using a 24 h fast. […] To define the selectivity of this response, various OEA analogs were evaluated for their ability to produce hypophagia.

[5] = Food intake studies in food-deprived or partially satiated rats (i.p. or i.c.v.), Example 8; settings: for food intake in partially satiated rats, systemic (i.p.) administration: 24 h food-deprived, allowed to eat 60 min before drug; for food intake in 24 h food-deprived rats, systemic (i.p.) administration: anandamide or WIN 55,212-2 0.1-2 mg/kg
Procedure: Drugs were administered by i.p. injection 15 min prior to food presentation in a volume of 1 ml/kg. For i.c.v. administration the obturator was removed from the guide cannula and an 8-mm injector (30-gauge stainless steel tubing) that was connected to 70 cm of calibrated polyethylene-10 tubing was lowered into the ventricle. The tubing was then raised until flow began and 5 μl of drug solution were infused over a 30-60 s period. The injector was left in the guide cannula for additional 30 s and then removed. The stylet was immediately replaced. Animals were tested 5 min after injections. The i.c.v. cannula placements were evaluated after each experiment by dye injection. Only those rats with proper i.c.v. placements were included in the data analysis.
The animals were then food-deprived for 24 h, with free access to water. 15 min after drug administration, the animals were returned to their home cage, where a can with a measured amount of food (usually 30-40 g) a bottle containing 250 ml of fresh water were placed. Food pellets and food spillage were weighed at 60,120 and 240 min after starting the test, and the amount of food eaten was recorded. At the end of the test, the amount of water consumed was also measured. For partial satiation of animals, 24 h food-deprived rats were allowed to eat from the can during 1 h. The can was retired and intake was recorded. 15 min after drug injections, the food was again presented, and the amount consumed was recorded hourly for the following 4 h.

Open field test = format: in vivo, rat
Procedure: Rats were habituated to the field for 10 min the day before testing. On the experimental day, the animals were placed in the center of the field and locomotor activity (number of lines crossed) and exploratory behavior (number of rearings and time spent in the center of the field) were scored for 5 min. All the experiments were performed 60 min after drug injections, and behavior was scored by trained observers blind to experimental conditions.

iNOS = test: Transrepression of iNOS expression in mouse jejunum; format: in vivo; settings: jejunum of C57BL/6J mice; OEA or oleic acid 10, Wy-14643 30 mg kg^−1 i.p.
Procedure: (§1) Tissues were stored in RnaLater™ (Ambion), extracted total RNA with TRIzol™ (Invitrogen) and quantified it with Ribogreen™ (Molecular Probes). cDNA was synthesized by using SuperscriptII RNase H-reverse transcriptase (Invitrogen).
(§2) Reverse transcription of total RNA (2 μg) was performed using Oligo(dT)12-18 primer (0.2 μg) for 50 min at 42° C. Real Time Quantitative (RTQ) PCR was conducted using an ABI PRISM 7700 sequence detection system (Applied Biosystems). Primer/probe sets were designed using the Primer Express™ software and gene sequences available from the Genebank™ database. Primers and fluorogenic probes were synthesized by TIB (Adelphia). The primer/probe sequences for the mouse genes were:
(§3) RNA levels were normalized by using glyceraldehyde 3-phosphate dehydrogenase (GAPDH) as an internal standard. mRNA levels were measured by generating six-point serial standard curves using mouse total RNA. Estimates of relative mRNA abundance (in arbitrary units) were made by using the CT value (Schmittgen et al., 2000). Relative quantifications of RNAs of interest were made by using the 2^ΔCT formula, in which ΔCT was calculated by subtracting the CT value for GAPDH from the CT value for the gene of interest. This formula was validated for each primer/probe set by using six-point serial standard curves.

PPAR-α-regulated genes = test: Real time quantitative PCR of gene expression in mouse intestine and liver; format: in vivo; settings: for expression of PPAR-α-regulated genes (PPAR-α, FAT/CD36, FATP1): jejunum of wild-type mice, OEA or oleic acid 10, Wy-14643 30 mg kg^−1 i.p.
Procedure: as §1, §2, §3

[6] = Food intake in vagotomized or capsaicin-treated rats, Example 3; format: in vivo, rat; settings: for food intake 30 min / food intake 60 min / food intake 120 min / food intake 240 min: 24-h food-deprived, Wy-14643 40 mg kg^−1 i.p.; for food intake after vagotomy or capsaicin treatment: rats, OEA 10, Wy-14643 40 mg kg^−1 i.p.
human PPARα = target: T1, human PPARα (Homo sapiens, UniProt Q07869); test: GAL4 chimeric receptor transactivation assay in HeLa cells, PPARα; format: cell-based; settings: for PPARα activation: HeLa transactivation assay
T1 construct: expressed in transfected cells; host or cells: HeLa (clonal reporter line HLR, stably transfected with pFA-PPARα)
T1 sequence (Q07869 239-466 limits assumed): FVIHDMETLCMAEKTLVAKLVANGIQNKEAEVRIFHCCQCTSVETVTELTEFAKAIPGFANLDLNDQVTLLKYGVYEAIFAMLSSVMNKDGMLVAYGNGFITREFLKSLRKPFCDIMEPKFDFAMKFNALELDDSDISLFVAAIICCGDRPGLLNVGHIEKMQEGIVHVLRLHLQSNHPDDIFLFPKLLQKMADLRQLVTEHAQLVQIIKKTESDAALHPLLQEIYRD
Procedure: Eighteen hours following transfection, the culture media was replaced with supplemented DMEM containing hygromycin (100 μg-ml^−1, Calbiochem). After 4 weeks in culture, the surviving clones were isolated and analyzed by luciferase assay. […] The cells were cultured in supplemented DMEM containing hygromycin and G418. For transactivation assays, cells were seeded in 6-well plates (50,000 cells per well) and incubated for 7 hours in supplemented DMEM containing hygromycin and G418, plus appropriate concentrations of test compounds. Dual-luciferase reporter assay system (Promega) and an MLX Microtiter® plate luminometer (Dynex) were used to determine luciferase activity in cell lysates.

O=c1ccc2[nH]cc(C3=CCNCC3)c2[nH]1 [CP-93129]
effect of capsaicin treatment on the drug's feeding response [1]: not | feeding response in capsaicin-treated rats [2]: responded normally

CC(C)(Sc1ccc(CCN(CCCCC2CCCCC2)C(=O)NC2CCCCC2)cc1)C(=O)O [GW7647, 2-(4-{2-[3-Cyclohexyl-1-(4-cyclohexyl-butyl)-ureido]-ethyl}-phenylsulfanyl)-2-methyl-propionic acid]
meal pattern analysis (eating latency, meal size, post-meal interval) [3]: selective prolongation of eating latency | food intake in C57BL/6J mice [3]: inhibited food intake

Cc1cc(SCc2sc(-c3ccc(C(F)(F)F)cc3)nc2C)ccc1OCC(=O)O [GW501516, [2-Methyl-4-[4-methyl-2-(4-trifluoromethyl-phenyl)-thiazol-5-ylmethylsulfanyl]-phenoxy}-acetic acid]
food intake in C57BL/6J mice [3]: did not affect feeding; also recorded: Lack of effect

CCCCCCCCCCCCCCCC(=O)NCCO [Palmitoylethanolamide, palmitoylethanolamide]
mimicry of the OEA effect on skeletal muscle fatty acid oxidation (Soleus muscle): only partially | food intake (hypophagia) [4]: active but significantly less potent than OEA

Cc1c(C(=O)NN2CCCCC2)nn(-c2ccc(Cl)cc2Cl)c1-c1ccc(Cl)cc1 [SR141716A, N-piperidino-5-(4-chlorophenyl)-1-(2,4-dichlorophenyl)-4-methylpyrazole-3-carboxamide]
food intake in partially satiated rats, systemic (i.p.) administration [5]: dose-dependent reduction of food intake | food intake in 24 h food-deprived rats, systemic (i.p.) administration [5]: dose-dependent reduction of food intake; also recorded: reduced food intake | food intake after central (i.c.v.) administration [5]: no effect; also recorded: did not affect food intake | effect of capsaicin treatment on the drug's feeding response [1]: loss and abolishes the reduction of food intake | rearing frequency in the open field (Open field test; i.c.v. SR141716A 10 μg, i.c.v. vehicle 16.6±3.1): 4.9±1.1 number of events per 5 min | rearing frequency in the open field (Open field test; i.p. SR141716A 3 mg/kg, i.p. vehicle 17.9±2.3): 9.4±2.0 number of events per 5 min | exploratory behavior in the open field (Open field test; irrespective of the administration route): reduced exploratory behavior

Cc1c(C(=O)c2cccc3ccccc23)c2cccc3c2n1[C@H](CN1CCOCC1)CO3 [WIN 55,212-2]
motor effect at the highest central dose ([5]; 10 μg i.c.v.): motor impairment | immobility ([5]; 10 mg/kg i.p.): profound immobility | food intake in partially satiated rats, systemic (i.p.) administration [5]: significant and prolonged hyperphagia; also recorded: promoted hyperphagia | food intake in 24 h food-deprived rats, systemic (i.p.) administration [5]: no effect | food intake after central (i.c.v.) administration [5]: no effect on feeding | effect of capsaicin treatment on the drug's feeding response [1]: loss of the hyperphagic effects; also recorded: did not produce hyperphagia

Cc1cccc(Nc2cc(Cl)nc(SCC(=O)O)n2)c1C [Wy-14643]
iNOS expression (iNOS): significantly decreased | expression of PPAR-α-regulated genes (PPAR-α, FAT/CD36, FATP1) (PPAR-α-regulated genes): mimicked the effects of OEA | gene expression in mice deficient in PPAR-α (PPAR-α-regulated genes; jejunum, OEA 10, Wy-14643 30 mg kg^−1 i.p.): did not stimulate gene expression | food intake 30 min ([6]; capsaicin-treated rats): 2.2 ± 1.2 | food intake 60 min ([6]; capsaicin-treated rats): 3.7 ± 1.6 | food intake 120 min ([6]; capsaicin-treated rats): 4.9 ± 1.5 | food intake 240 min ([6]; capsaicin-treated rats): 7.8 ± 1.9 | food intake 30 min ([6]; control rats): 2.3 ± 1.3 | food intake 60 min ([6]; control rats): 3.6 ± 1.2 | food intake 120 min ([6]; control rats): 5.8 ± 1.3 | food intake 240 min ([6]; control rats): 6.4 ± 1.8 | food intake after vagotomy or capsaicin treatment [6]: prevented the hypophagic effects | meal pattern analysis (eating latency, meal size, post-meal interval) [3]: selective prolongation of eating latency | feeding in PPARα-deficient mice [3]: did not respond | food intake in C57BL/6J mice [3]: inhibited food intake

CCOC(=O)C(C)(C)Oc1ccc(Cl)cc1 [clofibrate, 2-(4-chlorophenoxy)-2-methylpropanoic acid, ethyl ester]
food intake in C57BL/6J mice [3]: did not

CCN[C@@H](C)Cc1cccc(C(F)(F)F)c1 [d-fenfluramine]
food intake after vagotomy or capsaicin treatment [6]: not | feeding in PPARα-deficient mice [3]: responded normally

CCCCCCCCCCCCCC(=O)NCCO [myristylethanolamide]
PPARα activation (human PPARα): ineffective

CCCCCCCC/C=C\CCCCCCCC(=O)O [oleic acid]
iNOS expression (iNOS): ineffective | expression of PPAR-α-regulated genes (PPAR-α, FAT/CD36, FATP1) (PPAR-α-regulated genes): not | mimicry of the OEA effect on skeletal muscle fatty acid oxidation (Soleus muscle): not | EC50 (human PPARα): 10.3 ± 0.21 µM | food intake (hypophagia) [4]: no effect

CCCCCCCCCCCCCCCCCC(=O)NCCO [stearylethanolamide]
PPARα activation (human PPARα): did not elicit a response

CCK-8
effect of capsaicin treatment on the drug's feeding response [1]: abolished the anorexic response; also recorded: abolished the anorexic effect | feeding response in capsaicin-treated rats [2]: failed to respond | feeding in PPARα-deficient mice [3]: responded normally
